Results taken from patent US20180298340A1, “SYSTEMS FOR DETECTING, MONITORING OR TREATING DISEASES OR CONDITIONS USING ENGINEERED CELLS AND METHODS FOR MAKING AND USING THEM” (The Regents of the University of California, priority 2015, published 2018).

Columns and labels:
[1] = tested on: YAP/TAZ; experiment: MRCS-Luc luciferase activity on substrates with different stiffness; format: cell-based, human; conditions: compared to uninhibited cells on stiff, activating substrates
Description: FIG. 18 graphically illustrates data showing that MRCS-luciferase (MRCS-Luc) is stiffness specific in vitro. MRCS-Luc was seeded on substrates with different stiffness. […] D-Luciferin: 150 μg/ml in MSC growth medium. *P<0.05, **P<0.01.
The MRCS with engineered reporter-Luc construct (MRCS-Luc) was also found to be stiffness specific in vitro, similar to MRCS-eGFP (FIG. 18). […] C-MSC constitutively expressing luciferase served as a positive control, and N-MSC with no luciferase activity served as a negative control.

[2] = tested on: YAP/TAZ; experiment: MRCS-CD on firm substrate treated with mechano-sensing inhibitors; format: cell-based, human; conditions: firm (~40 kPa) poly-acrylamide; 50 μM blebbistatin, 10 μM ML-7, 20 μM PF228
Description: FIG. 20 graphically illustrates data showing that MRCS-CD is stiffness specific in vitro based on stiffness inhibitor studies. MRCS was plated on firm (approximately 40 kPa) poly-acrylamide and treated with (A,D,G,J) 50 μM blebbistatin and (B,E,H,K) 10 μM ML-7 (myosin light-chain kinase inhibitors) as well as (C,F,I,K) 20 μM PF228 (focal adhesion kinase inhibitor). […] Scale bar=50 μm.
MRCS-CD sensing was also shown to be reversibly stiffness-dependent (FIG. 20). Cells plated on stiff, activating substrate (approximately 40 kPa) were deactivated with the addition of blebbistatin and ML-7 (myosin light-chain kinase inhibitors) or PF228 (a focal adhesion kinase inhibitor). This was seen from the lack of GFP fluorescence (FIG. 20A-C) and from the localization of YAP/TAZ to the cytoplasm (FIG. 20D-F).

[3] = tested on: YAP/TAZ; experiment: MRCS-eGFP on firm substrate treated with mechano-sensing inhibitors (immunofluorescence); format: cell-based, human; conditions: firm (~40 kPa) poly-acrylamide; blebbistatin (5004 [sic]), 10 μM ML-7, 20 μM PF228
Description: FIG. 16A-L illustrate images of exemplary MRCS-eGFP showing that MRCS is stiffness specific in vitro. MRCS was plated on firm (approximately 40 kPa) poly-acrylamide and treated with (FIG. 16A, FIG. 16D, FIG. 16G, FIG. 16J) […] blebbistatin and (FIG. 16B, E, FIG. 16H, FIG. 16K) 10 μM ML-7 (myosin light-chain kinase inhibitors) as well as (FIG. 16C, FIG. 16F, FIG. 16I, FIG. 16K) 20 μM PF228 (focal adhesion kinase inhibitor). […] Scale bar=50 μm.
MRCS-eGFP sensing was also shown to be reversibly stiffness-dependent (FIG. 16). Cells plated on stiff, activating substrate (approximately 40 kPa) were deactivated with the addition of blebbistatin and ML-7 (myosin light-chain kinase inhibitors) or PF228 (a focal adhesion kinase inhibitor). This was seen from the lack of GFP fluorescence (FIG. 16A-C) and from the localization of YAP/TAZ to the cytoplasm (FIG. 16D-F). Real-time RT-PCR was performed on the seeded MRCS-eGFP cells to quantify relative mRNA expression levels of eGFP and two downstream factors of YAP/TAZ, CTGF (Connective Tissue Growth Factor) and ANKRDI (ANKyrin Repeat Domain-containing protein 1) (FIG. 17). […] N-MSC plated on stiff substrate was a control.

[4] = cited from earlier work

## O=S(=O)(c1cccc2c(I)cccc12)N1CCCNCC1 [ML-7]
[1]
  luciferase expression levels of MRCS-Luc with inhibitor: significantly lowered
[2]
  YAP/TAZ localization in MRCS-CD with inhibitor: in cytoplasm
  cytosine deaminase (CD) of MRCS with inhibitor: turned off
[3]
  YAP/TAZ localization in MRCS with inhibitor: in cytoplasm
  eGFP of MRCS with inhibitor: turned off

## CS(=O)(=O)c1cccc(CNc2nc(Nc3ccc4c(c3)CCC(=O)N4)ncc2C(F)(F)F)c1 [PF228]
[1]
  luciferase expression levels of MRCS-Luc with inhibitor: significantly lowered
[2]
  YAP/TAZ localization in MRCS-CD with inhibitor: in cytoplasm
  cytosine deaminase (CD) of MRCS with inhibitor: turned off
[3]
  YAP/TAZ localization in MRCS with inhibitor: in cytoplasm
  eGFP of MRCS with inhibitor: turned off

## Cc1ccc2c(c1)C(=O)C1(O)CCN(c3ccccc3)C1=N2 (stereo not shown) [blebbistatin]
[1]
  luciferase expression levels of MRCS-Luc with inhibitor: significantly lowered
[2]
  YAP/TAZ localization in MRCS-CD with inhibitor: in cytoplasm
  cytosine deaminase (CD) of MRCS with inhibitor: turned off
[3]
  YAP/TAZ localization in MRCS with inhibitor: in cytoplasm
  eGFP of MRCS with inhibitor: turned off

## E. coli beta-gal: E. coli beta-galactosidase reporter enzyme
[4]
  plasma half-life: less than 60 min
